We go through one compound from ChEMBL document CHEMBL1156449, “The nucleoside analog sangivamycin induces apoptotic cell death in breast carcinoma MCF7/adriamycin-resistant cells via protein kinase Cdelta and JNK activation” (J Biol Chem, 2007).

Each structure is given as a SMILES string. The source made the active and inactive calls. No cut-off for these calls is given here.

Assay [1] has as its system MCF/ADR. In words: Induction of c-Jun expression in human multidrug resistant MCF/ADR cells at 0.3 uM. The format is functional, cell-based.
Assay [2] concerns MCF/WT. In words: Induction of apoptosis in human drug-sensitive MCF/WT cells assessed as cleavage of caspase 9 at 0.3 uM by immunoblot analysis. Type of assay: functional, cell-based.
In assay [3] the target is Transcription factor Jun (Homo sapiens) (UniProt P05412). In words: Reduction in induction of non phosphorylated form of c-Jun in SP600125 pretreated human multidrug resistant MCF/ADR cells at 0.3 uM after 48 hrs by immunoblot analysis. Type of assay: cell-based. For orientation: In western blotting, separated proteins are transferred to a membrane and probed.
Sequence of Transcription factor Jun (Homo sapiens) (P05412 whole entry): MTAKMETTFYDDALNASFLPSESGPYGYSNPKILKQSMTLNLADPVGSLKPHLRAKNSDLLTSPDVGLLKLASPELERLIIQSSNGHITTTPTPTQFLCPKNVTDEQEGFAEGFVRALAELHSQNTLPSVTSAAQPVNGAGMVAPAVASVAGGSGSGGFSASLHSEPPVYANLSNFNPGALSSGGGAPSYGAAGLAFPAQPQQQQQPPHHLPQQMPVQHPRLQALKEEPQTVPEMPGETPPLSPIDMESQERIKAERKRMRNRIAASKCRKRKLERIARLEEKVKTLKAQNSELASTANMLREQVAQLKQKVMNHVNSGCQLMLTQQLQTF
Assay [4] in a line: Cell cycle arrest in human multidrug resistant MCF/ADR cells assessed as accumulation at G2/M phase at 0.3 uM after 72 hrs by propidium fluorescence flow cytometry. The format is functional, cell-based.
Assay [5] in a line: Cell cycle arrest in human multidrug resistant MCF/ADR cells assessed as accumulation at sub G0/G1 phase at 0.3 uM after 24 hrs by propidium fluorescence flow cytometry. Type of assay: functional, cell-based. In general terms: Flow cytometry measures light scatter and fluorescence of single cells or particles in a stream.
Assay [6] can be described thus: Cell cycle arrest in human multidrug resistant MCF/ADR cells assessed as accumulation at S phase at 0.3 uM after 24 hrs by propidium fluorescence flow cytometry. The format is functional, cell-based.
Assay [7] is described as follows: Cell cycle arrest in human drug-sensitive MCF/WT cells assessed as accumulation at sub G0/G1 phase at 0.3 uM after 24 hrs by propidium fluorescence flow cytometry. Type of assay: functional, cell-based.
In assay [8] the test system is MCF/WT. In words: Induction of apoptosis in human drug sensitive MCF/WT cells assessed as annexin V binding to phosphatidylserine at 0.3 uM after 6 hrs. Type of assay: functional, cell-based.
The subject of assay [9] is MCF/WT. In words: Increase in Bcl-x/l levels in human drug-sensitive MCF/WT cells at 0.3 uM by immunoblot analysis. The format is functional, cell-based.
A short description of assay [10]: Cell cycle arrest in human drug-sensitive MCF/WT cells assessed as accumulation at sub G0/G1 phase at 0.3 uM after 72 hrs by propidium fluorescence flow cytometry. Type of assay: functional, cell-based.
The nature of assay [11]: Cell cycle arrest in human drug-sensitive MCF/WT cells assessed as accumulation at S phase at 0.3 uM after 24 hrs by propidium fluorescence flow cytometry. The format is functional, cell-based.
A short description of assay [12]: Reduction in induction of c-Jun expression in human multidrug resistant MCF/ADR cells at 0.3 uM after 48 hrs by immunoblot analysis in presence of rottlerin. Type of assay: functional, cell-based.
A short description of assay [13]: Cell cycle arrest in human drug-sensitive MCF/WT cells assessed as accumulation at G0/G1 phase at 0.3 uM after 48 hrs by propidium fluorescence flow cytometry. Type of assay: functional, cell-based.
For assay [14], the system named is MCF/ADR. In words: Reduction of […] cleavage in human multidrug resistant MCF/ADR cells transfected with c-Jun siRNA at 0.3 uM after 48 hrs by immunoblot analysis. The format is functional, cell-based.
The subject of another assay is MCF. In words: Induction of c-Jun expression in human drug-sensitive MCF cells at 0.3 uM. The format is functional, cell-based.
Assay [15] in a line: Cell cycle arrest in human drug-sensitive MCF/WT cells assessed as accumulation at G2/M phase at 0.3 uM after 24 hrs by propidium fluorescence flow cytometry. Type of assay: functional, cell-based.
Assay [16] is described as follows: Cell cycle arrest in human multidrug resistant MCF/ADR cells assessed as accumulation at S phase at 0.3 uM after 72 hrs by propidium fluorescence flow cytometry. The format is functional, cell-based.
Assay [17] concerns MCF/ADR. In words: Reduction in induction of apoptosis in human multidrug resistant MCF/ADR cells assessed as suppression of caspase 9 activation at 0.3 uM after 48 hrs by immunoblot analysis in presence of rottlerin. Type of assay: functional, cell-based.
Assay [18] is described as follows: Cell cycle arrest in human drug-sensitive MCF/WT cells assessed as accumulation at sub G0/G1 phase at 0.3 uM after 48 hrs by propidium fluorescence flow cytometry. The format is functional, cell-based.
The test system of assay [19] is MCF/ADR. In words: Reduction in induction of apoptosis in human multidrug resistant MCF/ADR cells assessed as suppression of lamin A cleavage at 0.3 uM after 48 hrs by immunoblot analysis in presence of rottlerin. Type of assay: functional, cell-based.
The test system of assay [20] is MCF/ADR. In words: Reduction of lamin A cleavage in human multidrug resistant MCF/ADR cells transfected with c-Jun siRNA at 0.3 uM after 48 hrs by immunoblot analysis. Type of assay: functional, cell-based.
The next assay has as its system MDA-MB-231. In words: Induction of apoptosis in human multidrug resistant MDA-MB-231 cells assessed as accumulation of PARP at 0.3 uM after 48 hrs by immunoblot analysis. The format is functional, cell-based.
The target of assay [21] is Transcription factor Jun (Homo sapiens) (UniProt P05412). In words: Induction of c-Jun serine 73 phosphorylation in human multidrug resistant MCF/ADR cells at 0.3 uM. Type of assay: cell-based.
For assay [22], the system named is MCF/ADR. In words: Reduction in induction of apoptosis in human multidrug resistant MCF/ADR cells assessed as suppression of PARP cleavage at 0.3 uM after 48 hrs by immunoblot analysis in presence of rottlerin. The format is functional, cell-based.

Turning to `NC(=O)c1cn([C@@H]2O[C@H](CO)[C@@H](O)[C@H]2O)c2ncnc(N)c12` [SANGIVAMYCIN], the result (in the assay on MCF/ADR [1]; in assay [3]; with MCF/WT [9]; in assay [12]; with MCF; in the assay with MCF/ADR [17]) was Active. For the same compound, the result (with MCF/ADR [19]; with MDA-MB-231; in assay [21]; with MCF/ADR [22]) was Active. Besides, the outcome with MCF/WT [2], in the assay on MCF/WT [8], in the assay with MCF/ADR [14] and in the assay with MCF/ADR [20] was inactive. Moreover, the Activity amounted to 8% in [4]; 9% in assay [5]; 25% in assay [6]; 1% in assay [7]; 4% in assay [10]; 23% in assay [11]. The Activity was 61% in [13], 28% in assay [15], 25% in [16] and 3% in [18].
